Source: PubChem BioAssay AID394

Target: Tyrosine-protein phosphatase non-receptor type 14 (Homo sapiens) (UniProt Q15678)
Experiment: PTPN14 phosphatase ligand binding by thermal shift, biophysical, human, DSF, SYPRO orange (AID 394)
Conditions: recombinant PTPN14, DSF thermal shift, at 10 µM, protein 2 µM, buffer 10 mM HEPES, pH 7.5, NaCl 150 mM, stronger effect = higher value

Chain of Tyrosine-protein phosphatase non-receptor type 14 (Homo sapiens) (Q15678 whole entry, looked up): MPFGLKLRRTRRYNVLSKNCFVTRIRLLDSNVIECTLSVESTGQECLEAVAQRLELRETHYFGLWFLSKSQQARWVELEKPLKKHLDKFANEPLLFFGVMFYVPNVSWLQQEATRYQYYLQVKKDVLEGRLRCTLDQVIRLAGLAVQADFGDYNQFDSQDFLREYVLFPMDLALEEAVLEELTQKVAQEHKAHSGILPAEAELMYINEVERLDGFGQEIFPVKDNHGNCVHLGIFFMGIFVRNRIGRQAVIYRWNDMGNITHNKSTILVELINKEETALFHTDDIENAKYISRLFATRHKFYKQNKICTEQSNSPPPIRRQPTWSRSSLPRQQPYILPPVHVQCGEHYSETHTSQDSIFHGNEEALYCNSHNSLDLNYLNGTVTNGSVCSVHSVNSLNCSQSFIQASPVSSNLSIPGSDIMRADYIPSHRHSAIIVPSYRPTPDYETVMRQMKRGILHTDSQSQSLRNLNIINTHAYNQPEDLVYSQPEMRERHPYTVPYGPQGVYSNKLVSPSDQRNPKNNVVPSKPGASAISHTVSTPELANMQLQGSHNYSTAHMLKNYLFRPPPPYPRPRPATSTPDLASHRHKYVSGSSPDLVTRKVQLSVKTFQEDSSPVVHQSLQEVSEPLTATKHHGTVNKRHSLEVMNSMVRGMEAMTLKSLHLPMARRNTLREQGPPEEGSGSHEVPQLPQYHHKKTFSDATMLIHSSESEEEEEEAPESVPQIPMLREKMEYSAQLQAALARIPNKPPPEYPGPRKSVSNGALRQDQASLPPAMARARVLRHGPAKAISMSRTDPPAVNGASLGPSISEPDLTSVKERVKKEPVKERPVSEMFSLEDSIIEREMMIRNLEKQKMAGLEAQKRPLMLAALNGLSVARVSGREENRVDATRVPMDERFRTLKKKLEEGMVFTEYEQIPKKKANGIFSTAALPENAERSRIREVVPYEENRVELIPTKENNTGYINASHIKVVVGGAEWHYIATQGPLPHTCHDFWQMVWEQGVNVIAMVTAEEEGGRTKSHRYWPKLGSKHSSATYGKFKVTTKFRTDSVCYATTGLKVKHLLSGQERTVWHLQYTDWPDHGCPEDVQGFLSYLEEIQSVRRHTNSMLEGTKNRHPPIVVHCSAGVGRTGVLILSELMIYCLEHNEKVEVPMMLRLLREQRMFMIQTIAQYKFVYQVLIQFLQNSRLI

Tm shift (DTT 2000 µM, with dithiothreitol) [Celsius]	Tm shift [Celsius]	Structure (SMILES)
2.3		O=C([O-])c1ccccn1.OO.OO.[K+].[K+].[O]=[V]
	4.45	O=C(O)c1ccc([O-])cn1.OO.OO.[K+].[K+].[O]=[V]
	5.95	O=C(O)c1ccc(O)cn1.OO.[O]=[V]
	5.88	OO.OO.[K+].[O]=[V].c1cnc2c(c1)ccc1cccnc12
	4.81	OO.OO.[K+].[O]=[V].c1ccc(-c2ccccn2)nc1
